# Results as given in ChEMBL document CHEMBL4406850, “Review about the multi-target profile of resveratrol and its implication in the SGK1 inhibition” (Eur J Med Chem, 2019).
# Calls of active or inactive are those of the source. No cut-off for these calls is given here.
# How the values were obtained:
# Huh-7 [1] = experiment: Induction of apoptosis in human HuH7 cells transfected with ShSGK1 assessed as early apoptosis at 100 uM incubated for 48 hrs by annexin V and 7-AAD staining based assay; assay type: functional, cell-based
# Huh-7 [2] = experiment: Induction of apoptosis in human HuH7 cells assessed as increase in late apoptotic cells at 100 uM incubated for 48 hrs by annexin V and 7-AAD staining based assay; assay type: functional, cell-based
# [3] = target: T1, Serine/threonine-protein kinase Sgk1 (Homo sapiens) (UniProt O00141); experiment: Inhibition of SGK1 in human HUH7 cells at 100 uM using peptide as substrate incubated for 6 hrs by scintillation counter method; assay type: cell-based
# T1 sequence (whole entry): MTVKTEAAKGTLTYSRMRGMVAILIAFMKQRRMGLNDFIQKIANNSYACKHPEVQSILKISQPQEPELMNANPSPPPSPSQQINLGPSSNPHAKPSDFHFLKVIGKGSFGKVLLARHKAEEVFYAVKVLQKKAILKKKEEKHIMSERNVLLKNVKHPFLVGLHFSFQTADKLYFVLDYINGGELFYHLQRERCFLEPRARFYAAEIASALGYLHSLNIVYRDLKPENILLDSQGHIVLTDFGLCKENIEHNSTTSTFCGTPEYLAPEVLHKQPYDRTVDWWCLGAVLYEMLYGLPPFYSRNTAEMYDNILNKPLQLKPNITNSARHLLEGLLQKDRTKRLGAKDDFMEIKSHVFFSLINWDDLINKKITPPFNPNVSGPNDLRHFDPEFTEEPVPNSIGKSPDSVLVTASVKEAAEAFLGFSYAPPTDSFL
# [4] = target: T1, Serine/threonine-protein kinase Sgk1 (Homo sapiens); experiment: Inhibition of SGK1 in human HuH7 cells assessed as reduction in insulin-induced MDM2 phosphorylation on Ser166 at 100 uM incubated for 6 hrs by Western blot analysis; assay type: cell-based
# Huh-7 [5] = experiment: Antiproliferative activity against human HuH7 cells overexpressing SGK1 assessed as reduction in cell viability at 100 uM incubated for 48 hrs by trypan blue dye based assay; assay type: functional
# Huh-7 [6] = experiment: Antiproliferative activity against human HuH7 cells transfected with ShSGK1 assessed as reduction in cell viability at 100 uM incubated for 48 hrs by trypan blue dye based assay; assay type: functional
# Huh-7 [7] = experiment: Antiproliferative activity against human HuH7 cells overexpressing EGFP assessed as reduction in cell viability at 100 uM incubated for 48 hrs by trypan blue dye based assay; assay type: functional
# Huh-7 [8] = experiment: Induction of apoptosis in human HuH7 cells assessed as increase in necrotic cells at 100 uM incubated for 48 hrs by annexin V and 7-AAD staining based assay; assay type: functional, cell-based
# Huh-7 [9] = experiment: Antiproliferative activity against human HuH7 cells assessed as reduction in cell viability at 100 uM incubated for 48 hrs by trypan blue dye based assay; assay type: functional
# Huh-7 [10] = experiment: Induction of apoptosis in human HuH7 cells overexpressing EGFP at 100 uM incubated for 48 hrs by annexin V and 7-AAD staining based assay; assay type: functional, cell-based
# Huh-7 [11] = experiment: Induction of apoptosis in human HuH7 cells transfected with ShSGK1 assessed as late apoptosis at 100 uM incubated for 48 hrs by annexin V and 7-AAD staining based assay; assay type: functional, cell-based
# Huh-7 [12] = experiment: Induction of apoptosis in human HuH7 cells overexpressing SGK1 at 100 uM incubated for 48 hrs by annexin V and 7-AAD staining based assay; assay type: functional, cell-based
# Huh-7 [13] = experiment: Induction of apoptosis in human HuH7 cells assessed as increase in early apoptotic cells at 100 uM incubated for 48 hrs by annexin V and 7-AAD staining based assay; assay type: functional, cell-based
# [14] = target: T1, Serine/threonine-protein kinase Sgk1 (Homo sapiens); experiment: Inhibition of recombinant human N-terminal His-tagged SGK1 using (GRPRTSSFAEGKK) peptide as substrate incubated for 30 mins in presence of [32P] gamma ATP by scintillation counter method
# [15] = target: T1, Serine/threonine-protein kinase Sgk1 (Homo sapiens); experiment: Inhibition of recombinant human N-terminal His-tagged SGK1 at 50 uM using (GRPRTSSFAEGKK) peptide as substrate incubated for 30 mins in presence of [32P] gamma ATP by scintillation counter method
# [16] = target: T1, Serine/threonine-protein kinase Sgk1 (Homo sapiens); experiment: Inhibition of insulin-induced SGK1 in human HUH7 cells at 100 uM using peptide as substrate incubated for 6 hrs by scintillation counter method; assay type: cell-based
smiles,measurement,setting,value
Oc1ccc(/C=C/c2cc(O)cc(O)c2)cc1,Activity,Huh-7 [1],Active
same,Activity,Huh-7 [2],Active
same,inhibition,[3],inactive
same,inhibition,[4],Active
same,Activity,Huh-7 [5],inactive
same,Activity,Huh-7 [6],Active
same,Activity,Huh-7 [7],Active
same,Activity,Huh-7 [8],Active
same,Activity,Huh-7 [9],Active
same,Activity,Huh-7 [10],Active
same,Activity,Huh-7 [11],Active
same,Activity,Huh-7 [12],inactive
same,Activity,Huh-7 [13],Active
same,inhibition,[14],Dose-dependent effect
same,inhibition,[15],50%
same,inhibition,[16],Active
